# Reference: patent US9346820B2, “HIV-1 protease inhibitors having gem-di-fluoro bicyclic P2-ligands” (priority 2013, dated 2016)
# pEC50: −log10 of the molar value. “And” between values parts separate entries of the source, which are not always exact repeats. Identical values can stand only once. Like-named read-outs stand apart in the source and are kept apart here.
# Columns and labels:
# [1] = test system: HIV-1NL4-3; assay: p24 Gag production inhibition in MT-4 cells, wild-type laboratory strain; format: cell-based
# Description: (§1) The susceptibility of HIV-1LAI to various drugs was determined as previously described with minor modifications. Briefly, MT-2 cells (10^4/ml) were exposed to 100 50% tissue culture infectious doses (TCID50) of HIV-1LAI in the presence or absence of various concentrations of drugs in 96-well microculture plates and were incubated at 37° C. for 7 days. After 100 μl of the medium was removed from each well, 3-(4,5-dimetylthiazol-2-yl)-2,5-diphenyltetrazolium bromide (MTT) solution (10 μl, 7.5 mg/ml in phosphate-buffered saline) was added to each well in the plate, followed by incubation at 37° C. for 2 h. […] All assays were performed in duplicate or triplicate. […] To determine the sensitivity of primary HIV-1 isolates to drugs, phytohemagglutinin-stimulated peripheral blood mononuclear cells (PHA-PBMC) (10^6/ml) were exposed to 50 TCID50 of each primary HIV-1 isolate and cultured in the presence or absence of various concentrations of drugs in 10-fold serial dilutions in 96-well microculture plates. In determining the drug susceptibility of certain laboratory HIV-1 strains, MT-4 cells were employed as target cells as previously described with minor modifications. In brief, MT-4 cells (10^5/ml) were exposed to 100 TCID50 of drug-resistant HIV-1 strains in the presence or absence of various concentrations of drugs and were incubated at 37° C. On day 7 of culture, the supernatants were harvested and the amounts of p24 Gag protein were determined by using a fully automated chemiluminescent enzyme immunoassay system (Lumipulse F: Fujirebio Inc., Tokyo). […] All assays were performed in duplicate or triplicate. PHA-PBMs were derived from a single donor in each independent experiment. Thus, for obtaining the data, three different donors were recruited.
# [2] = in vitro; conditions: rat and monkey
# Description: The BBB Kit™ was kept at −80° C. until thawing on day 0 of the experiments. Nutritional medium was added to both brain and blood sides of the wells. This solution consists of DMEM F-12 medium with FCS 10% v/v, heparin 100 μg/ml, basic fibroblast growth factor (bFGF) 1.5 ng/ml, insulin 5 μg/ml, transferrin 5 μg/ml, sodium selenite 5 ng/ml, hydrocortisone 500 nM and gentamycin 50 μg/ml. Fresh medium was added 3 hours after thawing following the manufacturer's instructions, and 24 hours later. The plates were incubated at 37° C. until day 4 of the experiment when the condition of astrocytes was checked under a light microscope. Following this, the integrity of the collagen-coated membrane was verified by the measurement of the transendothelial electrical resistance (TEER) using an ohmmeter provided by the manufacturer. […] Detailed information regarding the components of the BBB Kit as well as its mechanisms can be seen by accessing the manufacturer's website http://www.pharmacocell.co.jp/en/bbb/index_e.html.
# Standard curves were generated for each compound on a light spectrophotometer as previously described. 100 μM of each compound was added to the luminal (blood side) of the wells, incubated at 37° C. for 30 minutes and then, the amount of drug that crossed the in vitro BBB was collected and measured under a light spectrophotometer at 230 nanometer absorbances.
# Papp was calculated using the following mathematical formula: […]
# This model (BBB Kit™) is thought to represent an in vitro BBB model for drug transport assays, permitting an adequate cross-talk of the cell lines involved and provide a way to test an apparent passage of small molecules across the BBB as previously described by Nakagawa et al. (41). […] The concentrations of each compound that permeated into the abluminal interface (termed “brain side”) were determined using a spectrophotometer, 30 min after the addition of each drug to the wells.
# The mathematical formula used for the calculation of Papp is described in Materials and Methods.
# [3] = test system: HIV-1MDR/B; assay: microbe, parasite or virus in culture; format: cell-based; conditions: for pEC50: Human immunodeficiency virus 1, read-out: EC50 HIV-1MDR/B (X4); for fold change of EC50 HIV-1MDR/B vs HIV-1ERS104pre: number in parentheses
# Description: (§2) All primary HIV-1 strains were passaged once or twice in 3-day-old phytohemagglutinin activated peripheral blood mononuclear cells (PHA-PBM), and the culture supernatants were stored at −80° C. until use.
# as §1
# [4] = test system: HIV-1MDR/C; assay: microbe, parasite or virus in culture; format: cell-based; conditions: for pEC50: Human immunodeficiency virus 1, read-out: EC50 HIV-1MDR/C (X4); for fold change of EC50 HIV-1MDR/C vs HIV-1ERS104pre: number in parentheses
# Description: as §2, §1
# [5] = Partition and distribution coefficients, shake-flask method; format: physicochemical; conditions: for Concentration in octanol^(b): n-octanol used for logD assay; for Concentration in octanol^(a): n-octanol used for logPOW determination; for Log DOct/Tris pH 7.40: pH 7.4; for Concentration in tris buffer / Concentration in water: shake flask, 100 μM, 230 nm
# Description: On day −1 of the experimental setting, saturation of 1-octanol (CH3 (CH2)6CH2OH) (Nacalai Tesque, Kyoto, Japan) water and tris-buffered saline (10X working solution 20 mM Tris, pH 7.4 and 0.9% NaCl, Sigma-Aldrich, St. Louis, Mo.) took place. Four different flasks were used: One containing 50 ml of water plus 100 ml of 1-octanol, the second flask contained 1-octanol saturated with water adding 50 ml of 1-octanol and 100 ml of water. The same ratios and volumes were kept for 1-octanol saturated with tris-buffer and tris-buffer saturated with 1-octanol. The flasks were sealed and placed into a room temperature bio shaker for 24 hours at 90 revolutions per minute. […] Successive dilutions were made to obtain concentrations of 10 μM, 1 μM and 0.1 μM. A standard curve was generated on a light spectrophotometer (DU Series 700, Beckman Coulter Fullerton, Calif.) at 230 nanometer absorbances.
# On day 1 of the experiment, the lipid and liquid interfaces were separated, and compounds were diluted again from 20 mM DMSO to 100 μM using the 1-octanol, water and Tris-buffered saline obtained from the shake-flask assay. The resulting diluted compounds were then added to separate serum tubes containing equal proportions of 1-octanol and water, and 1-octanol and Tris-buffered saline. The solution was handshaken for 5 minutes and then centrifuged at 3,500 rpm and room temperature for 20 minutes. Finally, the compounds were recovered from the 1-octanol, Tris-buffer and water interfaces and then measured on a light spectrophotometer.
# The values for logP and logD were obtained by applying the following mathematical formulas: […]
# The addition of fluorine atoms is generally expected to confer greater lipophilicity on nucleoside analogs and certain compounds (37-39). […] 1-Octanol, organic alcohol, and water were used for logP determination, while tris-buffered saline (pH 7.4) and water were utilized for logD determination. Prior to obtaining the actual values, a standard curve was generated as a reference and drug concentrations attained for each compartment (1-octanol, water and tris-buffered saline) were measured on a light spectrophotometer (at 230 nanometer absorbance) as previously described by Rak et al. (40).
# DRV was used as a control. N-octanol, an organic alcohol, and water were used for logP determination, while tris buffer and water were utilized for the logD assay. Prior to the retrieval of actual values a standard curve was generated as a reference. The drug concentrations for each compartment (octanol, water and tris buffer) were measured at 230 nanometer absorbances using a light spectrophotometer. Assay was performed following the OECD guidelines for testing of chemicals “Partition coefficient (n-octanol-water): shake flask method”, adopted by the council on 27 Jul. 1995.^(a) n-octanol used for logPOW determination;^(b) n-octanol used for logD assay. The formulas
# [6] = Human immunodeficiency virus 1, MT4, read-out: EC50 HIV-1NL4-3
# [7] = Human immunodeficiency virus 1, MT4, MT-4 cells, p24 Gag endpoint, read-out: EC50 HIV-1NL4-3
SMILES,"pEC50 [1, 6]","Papp at 30 min, 100 μM ([2]; Papp) [×10⁻⁶ cm/s]",pEC50 [3],fold change of EC50 HIV-1MDR/B vs HIV-1ERS104pre [3] [fold],pEC50 [4],fold change of EC50 HIV-1MDR/C vs HIV-1ERS104pre [4] [fold],Log POW (Octanol/Water) ([5]; shake flask method),"Papp at 30 min, 100 μM [2] [×10⁻⁶ cm/s]",Log POW (Octanol/Water) [5],Concentration in octanol^(b) [5],Concentration in octanol^(a) [5] [µM],Log DOct/Tris pH 7.40 [5],Concentration in tris buffer [5] [µM],Concentration in water [5] [µM],"pEC50 [1, 7]"
"COC(=O)N[C@H](C(=O)N[C@@H](Cc1ccccc1)[C@@H](O)CN(Cc1ccc(-c2ccccn2)cc1)NC(=O)[C@@H](NC(=O)OC)C(C)(C)C)C(C)(C)C [ATV, Atazanavir]",8.33,15.4,6.35,214,6.37,204,–,–,–,–,–,–,–,–,–
"CC(C)CN(C[C@@H](O)[C@H](Cc1ccccc1)NC(=O)O[C@H]1CO[C@H]2OCC[C@H]21)S(=O)(=O)c1ccc(N)cc1 [DRV, darunavir]",8.40,–,–,–,8.30,–,−0.63,9.9,–,–,–,–,–,–,–
COc1ccc(S(=O)(=O)N(CC(C)C)C[C@@H](O)[C@H](Cc2ccccc2)NC(=O)OC2CO[C@H]3OCC(F)(F)[C@@H]23)cc1 (stereo partly shown) [GRL-04810],–,47.8,7.85,7,8.70,1,–,–,−0.14,72 µM and 72.00 µM,70.00,−0.29,42.32,99.78,9.30
CC(C)CN(C[C@@H](O)[C@H](Cc1ccccc1)NC(=O)O[C@H]1CO[C@H]2OCC(F)(F)[C@H]21)S(=O)(=O)c1ccc(N)cc1 [GRL-05010],–,61.8,7.96,3,8.70,1,–,–,−0.83,14.09 µM,18.70,−1.01,49.84,94.55,8.43
"CC(C)(C)NC(=O)[C@@H]1C[C@@H]2CCCC[C@@H]2CN1C[C@@H](O)[C@H](Cc1ccccc1)NC(=O)[C@H](CC(N)=O)NC(=O)c1ccc2ccccc2n1 [SQV, Saquinavir]",7.43,4.9,6.46,90,6.51,78,–,–,–,–,–,–,–,–,–
